We go through five molecules from publication PMC2831066, “The Alzheimer's Disease-Associated Amyloid β-Protein Is an Antimicrobial Peptide” (PLoS ONE, 2010).

Series [1] concerns Candida albicans. It is filed as cell-based. As to the method: (§1) Bacteria were cultured aerobically in Mueller-Hinton broth (MHB), Brain and Heart Infusion broth (BHIB), or BHIB supplemented with 1% lysed horse blood and plated on Tryptone Soy Agar (TSA) plates containing 5% defibrinated sheep blood. […] Culture conditions for each organism are included in Table S1. Organisms were subcultured for 2 hrs to generate mid-logarithmic growth cultures for use as inoculates in experiments. Media reagents were obtained from Becton, Dickinson and Company (Sparks, MD).
(§2) Colonies from agar were transferred by sterile loop to growth media and incubated for 2 hrs at 37°C to achieve a McFarland density of 0.5. Bacteria inoculum cell densities were normalized to 5×10^5 cells/ml immediately before use photometrically and subsequently confirmed by colony count. Inoculum of C. albicans contained a cell density of 2.5×10^3 CFU/ml.
(§3) Bulk powdered peptides were first dissolved in 30% trifluoroethanol (TFE) at 1 mg/ml. Five hundred microliter aliquots of the stock solutions were lyophilized and stored under nitrogen at −20°C. Stock solutions at 2 mg/ml were prepared the day of experimentation from the peptide films by solubilizing a second time in either water or 20% TFE. Aβ stocks prepared in water were sonicated and insoluble peptide aggregates pelleted by centrifugation (10 min×16,000 g). Peptide concentrations in stock solutions were determined immediately before use by bicinchoninic acid (BCA) protein assay. […] For MIC experiments, peptides were serially diluted into growth media. For other experiments stocks were diluted into required working buffers. Experiments included controls for peptide buffer vehicle alone.
(§4) Peptide antimicrobial activity was determined as minimal inhibitory concentration (MIC). Experiments identified peptide MIC by broth microdilution susceptibility test in conjunction with CFU and alamar blue assays. Inoculum containing mid-logarithmic phase cells was dispensed into the wells of polypropylene 96-well plates (Fisher, Pittsburgh, PA) containing seven two-fold dilutions of test peptide in growth media. Plates were then incubated aerobically overnight (12 to 18 hrs) at 37°C. Peptide MIC was taken as the lowest concentration able reduce cell growth by CFU and alamar blue assays by at least two-fold and which correlated with the visible loss of a growth button on the bottom of microtiter wells. Experiments were repeated a minimum of three times for each organism, and tests included at least three replicates for each assay condition. Experiments included control serial dilutions of buffer vehicle alone.
(§5) Serial dilutions of incubants were prepared and streaked onto the surface of agar. The agar plates were then incubated overnight at 37°C and colonies forming units counted.
(§6) Microbial growth was determined by following the reduction of the synthetic metabolic substrate resazurin (alamar blue) to a fluorescent product by respiratory enzymes in living cells. Alamar blue assay is used in high throughput screens for antimicrobial agents and is available commercially in kit form from Invitrogen. Microbial growth in experiments was assayed with alamar blue kits according to the manufacturer's instructions. […] Fluorescence signal was measured at excitation of 530 nm and emission at 590 nm.

Series [2] concerns Enterococcus faecalis. The class given is cell-based. On the procedure:
as §1, §2, §3, §4, §5, §6

In series [3] the test system is Escherichia coli. The class given is cell-based. As to the method:
as §1, §2, §3, §4, §5, §6

Series [4] has as its system Listeria monocytogenes. The class given is cell-based. On the procedure: as §1, §2, §3, §4, §5, §6
Series [5] concerns Pseudomonas aeruginosa. The class given is cell-based. On the procedure: as §1, §2, §3, §4, §5, §6
Series [6] has as its system Staphylococcus aureus. The class given is cell-based. As to the method:
as §1, §2, §3, §4, §5, §6

The subject of series [7] is Staphylococcus epidermidis. It is filed as cell-based. On the procedure:
as §1, §2, §3, §4, §5, §6

Series [8] concerns Streptococcus agalactiae. It is filed as cell-based. On the procedure: as §1, §2, §3, §4, §5, §6
Series [9] has as its system Streptococcus mitis. The class given is cell-based. On the procedure: as §1, §2, §3, §4, §5, §6
Series [10] deals with Streptococcus pneumoniae. It is filed as cell-based. On the procedure:
as §1, §2, §3, §4, §5, §6

Series [11] concerns Streptococcus pyogenes. It is filed as cell-based. On the procedure: as §1, §2, §3, §4, §5, §6
The subject of series [12] is Streptococcus salivarius. It is filed as cell-based. On the procedure:
as §1, §2, §3, §4, §5, §6

In series [13] the test system is E. faecalis. The series is described as follows: Growth curves of E. faecalis with peptide, CFU count. It is filed as cell-based, Enterococcus faecalis. The following applies: 25 µg/ml peptide; growth with time by CFU; six experiments, four replicates (Figure 1A). As to the method:
as §5

For series [14] the following is noted: clinical trial in AD patients; cited from earlier work.
Series [15] has as its system panel of clinically relevant organisms. The series is described as follows: MIC against panel of clinically relevant organisms, recombinant versus synthetic peptide. The class given is cell-based. The following applies: data not shown. On the procedure: Aβ and LL-37 peptides were prepared and purified by Dr. James I. Elliott at Yale University (New Haven, CT) using solid-phase peptide synthesis. Scrambled LL-37 peptide was from AnaSpec (San Jose, CA). […] Findings for recombinant and SPPS prepared peptides were equivalent in all experiments.
as §4

≈ marks a conversion by molar mass, not a printed value. Where two headings read alike, the source gives them in different places. No end group written: not given here.

For the molecule `CC[C@H](C)[C@H](NC(=O)[C@H](CCCCN)NC(=O)[C@H](CCC(=O)O)NC(=O)[C@H](CCCCN)NC(=O)[C@H](CO)NC(=O)[C@H](CCCCN)NC(=O)[C@H](CCCNC(=N)N)NC(=O)[C@H](Cc1ccccc1)NC(=O)[C@H](Cc1ccccc1)NC(=O)[C@H](CC(=O)O)NC(=O)CNC(=O)[C@H](CC(C)C)NC(=O)[C@@H](N)CC(C)C)C(=O)NCC(=O)N[C@@H](CCCCN)C(=O)N[C@@H](CCC(=O)O)C(=O)N[C@@H](Cc1ccccc1)C(=O)N[C@@H](CCCCN)C(=O)N[C@@H](CCCNC(=N)N)C(=O)N[C@H](C(=O)N[C@H](C(=O)N[C@@H](CCC(N)=O)C(=O)N[C@@H](CCCNC(=N)N)C(=O)N[C@H](C(=O)N[C@@H](CCCCN)C(=O)N[C@@H](CC(=O)O)C(=O)N[C@@H](Cc1ccccc1)C(=O)N[C@@H](CC(C)C)C(=O)N[C@@H](CCCNC(=N)N)C(=O)N[C@@H](CC(N)=O)C(=O)N[C@@H](CC(C)C)C(=O)N[C@H](C(=O)N1CCC[C@H]1C(=O)N[C@@H](CCCNC(=N)N)C(=O)N[C@H](C(=O)N[C@@H](CCC(=O)O)C(=O)N[C@@H](CO)C(=O)O)[C@@H](C)O)C(C)C)[C@@H](C)CC)C(C)C)[C@@H](C)CC` [LL-37], the MIC worked out at 6.25 µg/mL (≈ 1.39 µM) in series [1] (Candida albicans ATCC 10231, RPMI-1640 with 2% glucose, MOPS pH 7.0, inoculum 2.5×10^3 CFU/ml, mid-logarithmic phase, overnight (12 to 18 hrs) 37°C, visual inspection confirmed by alamar blue and CFU, repeated at least three times); 6.25 µg/mL (≈ 1.39 µM) in series [2] (Enterococcus faecalis ATCC 29212, inoculum 5×10^5 cells/ml, mid-logarithmic phase, overnight (12 to 18 hrs) 37°C, visual inspection confirmed by alamar blue and CFU, repeated at least three times); 1.56 µg/mL (≈ 0.347 µM) in [3] (Escherichia coli ATCC 25922, inoculum 5×10^5 cells/ml, mid-logarithmic phase, overnight (12 to 18 hrs) 37°C, visual inspection confirmed by alamar blue and CFU, repeated at least three times); 25 µg/mL (≈ 5.56 µM) in series [4] (Listeria monocytogenes ATCC 19112, inoculum 5×10^5 cells/ml, mid-logarithmic phase, overnight (12 to 18 hrs) 37°C, visual inspection confirmed by alamar blue and CFU, repeated at least three times); 6.25 µg/mL (≈ 1.39 µM) in series [5] (Pseudomonas aeruginosa ATCC 27853, inoculum 5×10^5 cells/ml, mid-logarithmic phase, overnight (12 to 18 hrs) 37°C, visual inspection confirmed by alamar blue and CFU, repeated at least three times); 6.25 µg/mL (≈ 1.39 µM) in series [6] (Staphylococcus aureus ATCC 25923, inoculum 5×10^5 cells/ml, mid-logarithmic phase, overnight (12 to 18 hrs) 37°C, visual inspection confirmed by alamar blue and CFU, repeated at least three times). The MIC in series [7] (Staphylococcus epidermidis ATCC 12228, inoculum 5×10^5 cells/ml, mid-logarithmic phase, overnight (12 to 18 hrs) 37°C, visual inspection confirmed by alamar blue and CFU, repeated at least three times) is 25 µg/mL (≈ 5.56 µM); in [8] (Streptococcus agalactiae ATCC 12386, inoculum 5×10^5 cells/ml, mid-logarithmic phase, overnight (12 to 18 hrs) 37°C, visual inspection confirmed by alamar blue and CFU, repeated at least three times) it was 12.5 µg/mL (≈ 2.78 µM); in series [9] (Streptococcus mitis ATCC 6249, inoculum 5×10^5 cells/ml, mid-logarithmic phase, overnight (12 to 18 hrs) 37°C, visual inspection confirmed by alamar blue and CFU, repeated at least three times) it was 6.25 µg/mL (≈ 1.39 µM); in series [10] (Streptococcus pneumoniae ATCC 49619, inoculum 5×10^5 cells/ml, mid-logarithmic phase, overnight (12 to 18 hrs) 37°C, visual inspection confirmed by alamar blue and CFU, repeated at least three times), 1.56 µg/mL (≈ 0.347 µM); in series [11] (Streptococcus pyogenes ATCC 19615, inoculum 5×10^5 cells/ml, mid-logarithmic phase, overnight (12 to 18 hrs) 37°C, visual inspection confirmed by alamar blue and CFU, repeated at least three times), 6.25 µg/mL (≈ 1.39 µM); in series [12] (Streptococcus salivarius ATCC 13419, inoculum 5×10^5 cells/ml, mid-logarithmic phase, overnight (12 to 18 hrs) 37°C, visual inspection confirmed by alamar blue and CFU, repeated at least three times), 50 µg/mL (≈ 11.1 µM). Besides, the “Action on E. faecalis growth (bacteriostatic or bactericidal)” value in series [13] is given as “potent bactericidal activity”.

In the case of `C[C@@H](C(=O)O)c1ccc(-c2ccccc2)c(F)c1` [tarenflurbil], the “Rates of infection in patients receiving the drug” value in series [14] was “significantly increased rates of infection”.

With “AIVVGGVMLGIIAGKNSGVDEAFFVLKQHHVEYGSDHRFEAD [reAβ42, Aβ42-1]”, the MIC in series [1] (pH 7) was more than 25 µg/mL; in [2], 50 µg/mL; in series [3], more than 50 µg/mL; in series [4], more than 50 µg/mL; in [5] it was more than 50 µg/mL; in [6] it was more than 50 µg/mL. Besides, the MIC is more than 50 µg/mL in [7]; more than 50 µg/mL in series [8]; more than 50 µg/mL in series [9]; 50 µg/mL in series [10]; more than 50 µg/mL in series [11]; more than 50 µg/mL in series [12].

With “DAEFGHDSGFEVRHQKLVFFAEDVGSNKGAIIGLMVGGVVIA [roAβ42]”, the minimum inhibitory concentration (MIC) in series [1] (pH 7) is 0.78 µg/mL; in [2], 3.13 µg/mL; in [3], 3.13 µg/mL; in [4], 6.25 µg/mL; in [5] it was more than 50 µg/mL; in series [6], 12.5 µg/mL. Also, the minimum inhibitory concentration (MIC) in series [7] was 3.13 µg/mL; in series [8], more than 50 µg/mL; in [9] it was more than 50 µg/mL; in series [10] it was 6.25 µg/mL; in series [11], more than 50 µg/mL; in series [12], more than 50 µg/mL.

As for “recombinant Aβ42: Recombinant human Aβ42 purchased from rPeptide”, the “Antimicrobial activity compared with synthetic Aβ42” value in series [15] was “Equivalent findings”.

As usually defined, the MIC is the lowest concentration found to suppress growth. The low end stands for greater potency, the high end for weaker potency.
